Measurements taken from the supplement of paper PMC8024199.
± gives the standard deviation of the averaged measurements.

What was measured:
Experiment in all cases: drug sensitivity score (DSS) (DSS score); higher = more sensitive (stronger growth inhibition); extreme values may be limits of the assay
[1] = test system: Ba/F3 P210-BCR-ABL1 RUNX1-/mut (mouse)
Procedure, shortened: (§1)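 Each value is a drug sensitivity score derived from CellTiter-Glo luminescence scaled between vehicle and positive-control wells. Mouse Ba/F3 clones, CRISPR/Cas9-edited at a target exon or edited controls, were seeded at 10,000 cells per well in RPMI with 10% FBS and treated for 72 h at 37 °C and 5% CO2. Compounds from a 528-compound library were tested at five concentrations over a 10,000-fold range, and scores were averaged over two replicates.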

[2] = test system: Ba/F3 P210-BCR-ABL1 RUNX1wt/wt control (mouse)
Procedure, shortened: as §1

[3] = test system: Ba/F3 P210-BCR-ABL1 RUNX1-/- (mouse)
Procedure, shortened: as §1

| Compound | drug sensitivity score [1] | drug sensitivity score [2] | drug sensitivity score [3] |
| --- | --- | --- | --- |
| CNc1ncc2cc(-c3cc(NC(=O)NCCC(C)(C)C)c(F)cc3C)c(C)nc2n1 | 15.6 ± 0.64 | 9.45 ± 0.21 | 22.3 ± 0.28 |
| CNS(=O)(=O)Nc1nccc(Cc2c(C)c3ccc(Oc4ncccn4)cc3oc2=O)c1F | 0.3 ± 0.42 | 0 | 2.4 ± 0.14 |
| CC[C@@H]1[C@H](F)C(=O)N[C@@H]1COc1nccc2cc(C(N)=O)c(OC)cc12 | 0.9 ± 1.3 | 0.25 ± 0.35 | 1.3 ± 0.42 |
| N#CC[C@H](C1CCCC1)n1cc(-c2ncnc3[nH]ccc23)cn1 [Ruxolitinib] | 1.45 ± 2 | 0 | 2.2 ± 0.71 |
| C[C@@H]1CN(Cc2ccc(F)cc2)[C@@H](C)CN1C(=O)c1cc2c(C(=O)C(=O)N(C)C)cn(C)c2cc1Cl [Talmapimod] | 0.1 ± 0.14 | 0 | 0.25 ± 0.35 |
| C=CC(=O)Nc1cccc(Nc2nc(Nc3ccc(OCCOC)cc3)ncc2F)c1 [Spebrutinib] | 0 | 0 | 0 |
| CC(C)C[C@H](NC(=O)[C@@H](COC(C)(C)C)NC(=O)[C@H](Cc1ccc(O)cc1)NC(=O)[C@H](CO)NC(=O)[C@H](Cc1c[nH]c2ccccc12)NC(=O)[C@H](Cc1cnc[nH]1)NC(=O)[C@@H]1CCC(=O)N1)C(=O)N[C@@H](CCCNC(=N)N)C(=O)N1CCC[C@H]1C(=O)NNC(N)=O [Goserelin] | 0.4 | 0 | 0 |
| C[C@@H]1COCCN1c1cc(C2([S@](C)(=N)=O)CC2)nc(-c2cc[nH]c3nccc2-3)n1 [AZD6738] | 19.2 ± 0.71 | 18 ± 0.57 | 20.1 ± 1.4 |
| CC(=O)c1cc2c(o1)C(=O)c1ccccc1C2=O [Napabucasin] | 19.4 ± 3 | 11.1 ± 2.5 | 17.4 ± 0.14 |
| COc1ccccc1S(=O)(=O)Nc1ccc2c(c1)CN(C)C(=O)N2 [PFI-1] | 15.9 ± 3.9 | 9.35 ± 0.071 | 16 ± 2.8 |
| COCCNCc1ccc(-c2cc3nccc(Oc4ccc(NC(=O)C5(C(=O)Nc6ccc(F)cc6)CC5)cc4F)c3s2)nc1 [Sitravatinib] | 4.6 ± 0.71 | 0 | 8.95 ± 0.35 |
| N#CC1(c2ccc(NC(=O)c3cccnc3NCc3ccncc3)cc2)CCCC1 [Apatinib] | 0 | 0 | 0.4 ± 0.57 |
| CC[C@H](CC#N)OC(=O)N[C@@H](C)c1cccc(NC(=O)Nc2ccc(-c3cnco3)c(OC)c2)c1 [AVN944] | 24.95 ± 0.21 | 21.7 ± 1.6 | 25.9 ± 0.42 |
| C=CC(=O)Nc1cccc(Nc2nc(Nc3ccc(N4CCN(C(C)=O)CC4)cc3OC)ncc2C(F)(F)F)c1 [Rociletinib] | 7.45 ± 0.071 | 4.4 ± 0.42 | 8.6 ± 1.6 |
| O=C(CCCCCCC(=O)Nc1ccc([C@H]2O[C@@H](CSc3nc(-c4ccccc4)c(-c4ccccc4)o3)C[C@@H](c3ccc(CO)cc3)O2)cc1)NO [Tubacin] | 6.2 ± 0.28 | 4.35 ± 0.78 | 6.45 ± 1.2 |
| C#Cc1cccc(Nc2ncnc3cc4c(cc23)OCCOCCOCCO4)c1 [Icotinib] | 0 | 0 | 0 |
| CC(C)c1c(C(=O)Nc2ccccc2)c(-c2ccccc2)c(-c2ccc(F)cc2)n1CC[C@@H](O)C[C@@H](O)CC(=O)O [Atorvastatin] | 0.1 ± 0.14 | 0 | 0.65 ± 0.92 |
| C[C@@H]1C=C2C(=O)O[C@@H]3CC[C@H](C1)[C@]23O [Galiellalactone] | 9.7 ± 4.1 | 5.1 | 12 ± 3.1 |
| Cc1nc(=O)c2cc(CN(C)c3ccc(C(=O)N[C@@H](CCC(=O)O)C(=O)O)s3)ccc2[nH]1 [Raltitrexed] | 20.3 ± 0.28 | 17.4 ± 0.57 | 23.4 ± 2.2 |

| Compound | drug sensitivity score [1] | drug sensitivity score [2] | drug sensitivity score [3] |
| --- | --- | --- | --- |
| Nc1nccc(-c2c(-c3ccc(F)cc3)ncn2C2CCCCC2)n1 | 0 | 0 | 0.05 ± 0.071 |
| Cn1cc(CNCC2CCN(c3ncc(C(=O)NO)cn3)CC2)c2ccccc21 [Quisinostat] | 17.95 ± 0.071 | 15.3 ± 0.28 | 21.6 ± 1.3 |
| CC1(COc2ccc3c(c2)ncn3-c2ccc3cccc(N4CCC(N)CC4)c3n2)COC1 [Crenolanib] | 10.9 ± 1.5 | 6.25 ± 0.49 | 12.8 ± 0.49 |
| Cc1c(F)cc(C(=O)NC2CC2)cc1-c1ccc(C(=O)NCC(C)(C)C)cn1 [Losmapimod] | 1.8 ± 2.5 | 0.15 ± 0.21 | 2.3 ± 2.4 |
| CN(c1ncccc1CNc1nc(Nc2ccc3c(c2)CC(=O)N3)ncc1C(F)(F)F)S(C)(=O)=O | 7.25 ± 1.9 | 4.8 ± 0.57 | 5.7 ± 0.28 |
| CC(C)Nc1cc(-c2c[nH]c(C(=O)N[C@H](CO)c3cccc(Cl)c3)c2)c(Cl)cn1 [Ulixertinib] | 5.6 ± 0.42 | 2.45 ± 1.6 | 7.25 ± 0.071 |
| NCCNc1ccc(NCCN)c2c1C(=O)c1ccncc1C2=O [Pixantrone] | 2.45 ± 1.1 | 0 | 1.95 ± 1.3 |
| CNc1nc(-c2ccc3c(N)n[nH]c3c2)cc(N2C[C@@H](C(=O)NC3CCCCC3)CC[C@H]2C)n1 | 4 ± 2.3 | 0 | 7.15 ± 0.35 |
| N#CCNC(=O)c1ccc(-c2ccnc(Nc3ccc(N4CCOCC4)cc3)n2)cc1 [Momelotinib] | 5.9 ± 1.1 | 6.15 ± 0.64 | 8.45 ± 1.1 |
| CNC(=O)c1ccc(N2C(=S)N(c3cnc(C#N)c(C(F)(F)F)c3)C(=O)C23CCC3)cc1F [Apalutamide] | 0 | 0 | 0 |
| Cc1cc(Nc2nc(N[C@@H](C)c3ncc(F)cn3)ncc2Cl)[nH]n1 [AZD1480] | 0 | 0 | 0 |
| O=C(O)CCCCC(CCSCc1ccccc1)SCc1ccccc1 (stereo unspecified) [CPI-613] | 0 | 0 | 0 |
| C=CCc1cccc(/C=N/NC(=O)CN2CCN(Cc3ccccc3)CC2)c1O [PAC-1] | 4.65 ± 0.78 | 0.15 ± 0.21 | 4.95 ± 0.21 |
| Cc1noc2c1-c1ccccc1C(c1ccc(Cl)cc1)=N[C@H]2CC(N)=O [CPI-0610] | 19.1 ± 4.6 | 14 ± 0.28 | 19.6 ± 1.1 |
| O=C(c1ccc(F)c(F)c1Nc1ccc(I)cc1F)N1CC(O)([C@@H]2CCCCN2)C1 [Cobimetinib] | 4.6 ± 1.8 | 0 | 9.05 ± 0.78 |
| CCOCc1nc2c(N)nc3ccccc3c2n1CC(C)(C)O [Resiquimod] | 3.6 ± 5.1 | 0.15 ± 0.21 | 3.6 |
| CS(=O)(=O)c1ccc(-c2cnc(N)c(C(=O)Nc3ccccc3)n2)cc1 [VE-821] | 4.3 ± 4.8 | 1.8 | 5.55 ± 4.5 |
| Cc1cc(-c2nc(-c3ccc(OC(F)(F)F)cc3)no2)nn1Cc1ccnc(N2CCN(C3CC3)CC2)c1 [BAY 87-2243] | 3.25 ± 1.5 | 4.9 ± 0.57 | 4.6 ± 2.3 |
